Measurements taken from patent publication US20110245293A1, “PHARMACEUTICAL PRODUCT COMPRISING A MUSCARINIC RECEPTOR ANTAGONIST AND A BETA-2-ADRENOCEPTOR AGONIST” (priority 2008, published 2011).
Where a name gives a salt, the structure may show the parent alone.

Tests used:
[1] = Gravimetric Vapour Sorption (GVS) of crystalline material; assay type: physicochemical; conditions: at 80% RH
Method: Gravimetric Vapour Sorption (GVS) profiles were measured using a Surface Measurements Systems Dynamic Vapour Sorption DVS-1 or a DVS Advantage instrument. The solid sample ca. 1-5 mg was placed into a glass vessel and the weight of the sample was recorded during a dual cycle step method (40 to 90 to 0 to 90 to 0% relative humidity (RH), in steps of 10% RH).

[2] = target: T1, Adrenergic β2 (Homo sapiens, UniProt P07550); test: Adrenergic β2 mediated cAMP production in H292 cells (AlphaScreen); assay type: cell-based; conditions: Intrinsic Activity as a fraction relative to the maximum activity of formoterol
T1 construct: endogenous in cells; host or cells: H292 cells
T1 sequence (P07550 whole entry): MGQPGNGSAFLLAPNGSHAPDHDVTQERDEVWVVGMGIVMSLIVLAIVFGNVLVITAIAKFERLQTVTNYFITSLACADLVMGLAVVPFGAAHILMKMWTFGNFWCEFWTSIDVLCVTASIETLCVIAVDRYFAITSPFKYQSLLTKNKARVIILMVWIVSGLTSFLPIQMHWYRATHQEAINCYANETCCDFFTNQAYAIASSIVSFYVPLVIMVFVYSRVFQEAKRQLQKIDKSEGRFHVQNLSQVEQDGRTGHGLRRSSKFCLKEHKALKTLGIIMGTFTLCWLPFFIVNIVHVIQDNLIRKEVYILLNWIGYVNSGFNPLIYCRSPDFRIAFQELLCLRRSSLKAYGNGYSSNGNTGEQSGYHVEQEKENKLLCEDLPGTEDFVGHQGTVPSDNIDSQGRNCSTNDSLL
Method: Adrenergic β2 Mediated cAMP Production
H292 cells were grown in 225 cm2 flasks incubator at 37° C., 5% CO2 in RPMI medium containing, 10% (v/v) FBS (foetal bovine serum) and 2 mM L-glutamine.
Adherent H292 cells were removed from tissue culture flasks by treatment with Accutase™ cell detachment solution for 15 minutes. Flasks were incubated for 15 minutes in a humidified incubator at 37° C., 5% CO2. Detached cells were re-suspended in RPMI media (containing 10% (v/v) FBS and 2 mM L-glutamine) at 0.05×10^6 cells per mL. 5000 cells in 100 μL were added to each well of a tissue-culture-treated 96-well plate and the cells incubated overnight in a humidified incubator at 37° C., 5% CO2. The culture media was removed and cells were washed twice with 100 μL assay buffer and replaced with 50 μL assay buffer (HBSS solution containing 10 mM HEPES pH7.4 and 5 mM glucose). Cells were rested at room temperature for 20 minutes after which time 25 μL of rolipram (1.2 mM made up in assay buffer containing 2.4% (v/v) dimethylsulphoxide) was added. Cells were incubated with rolipram for 10 minutes after which time Compound A was added and the cells were incubated for 60 minutes at room temperature. The final rolipram concentration in the assay was 300 μM and final vehicle concentration was 1.6% (v/v) dimethylsulphoxide. The reaction was stopped by removing supernatants, washing once with 100 μL assay buffer and replacing with 50 μL lysis buffer. The cell monolayer was frozen at −80° C. for 30 minutes (or overnight).
The concentration of cAMP (cyclic adenosine monophosphate) in the cell lysate was determined using AlphaScreen™ methodology. […] The AlphaScreen™ signal was measured using an EnVision spectrophotometer (Perkin-Elmer Inc.) with the recommended manufacturer's settings. cAMP concentrations were determined by reference to a calibration curve determined in the same experiment using standard cAMP concentrations. […] Intrinsic Activity was expressed as a fraction relative to the maximum activity determined for formoterol in each experiment.

[3] = Dynamic vapour sorption (DVS) analysis of crystalline material; assay type: physicochemical; conditions: at 80% RH, 25° C.
Method: Dynamic vapour sorption (DVS) analysis was performed on a Surface Measurement systems (SMS) DVS-Intrinsic moisture sorption analyser. The instrument was controlled by SMS Analysis Suite software (DVS-Intrinsic Control v1.0.0.30). Analysis of the data was performed using Microsoft Excel 2007 together DVS Standard Analysis Suite (v6.0.0.7). Sample temperature was maintained at 25° C. and the sample humidity was obtained by mixing streams of wet and dry nitrogen at a total flow rate of 200 mlmin^−1. The relative humidity was measured using a calibrated Rotronic probe (dynamic range 1-100% Relative Humidity (RH)) located close to the sample. The weight change of the sample as a function of % RH was constantly monitored by the microbalance (accuracy±0.005 mg). Typically a PXRD would be run prior to analysis. 20 mg of sample was then placed in a tared stainless steel mesh basket under ambient conditions. The sample was loaded and unloaded at 40% RH and 25° C. (typical room conditions) and the sample subjected to a graduated DVS regime over 2 cycles using the parameters shown in Table 1.

Compound | GVS mass increase [1] | β2 Int Act [2] | further results
O[C@](c1ccccc1)(c1cc(C[N+]23CCC(CC2)[C@@H](Oc2cccc(F)c2)C3)on1)C1CCCCC1.[Cl-] [Example 3, (R)-1-[3-((R)-Cyclohexyl-hydroxy-phenyl-methyl)-isoxazol-5-ylmethyl]-3-(3-fluoro-phenoxy)-1-azonia-bicyclo[2.2.2]octane chloride] |  |  | GVS mass increase 1st cycle ([1]; 1st cycle): approximately 5%; GVS mass increase 2nd cycle ([1]; 2nd cycle): ~6.5%
O[C@](c1ccccc1)(c1cc(C[N+]23CCC(CC2)[C@@H](Oc2cccc(F)c2)C3)on1)C1CCCCC1 [Example 4, (R)-1-[3-((R)-Cyclohexyl-hydroxy-phenyl-methyl)-isoxazol-5-ylmethyl]-3-(3-fluoro-phenoxy)-1-azonia-bicyclo[2.2.2]octane 2-hydroxy-ethanesulfonate] | no mass increase |  | 
O[C@](c1ccccc1)(c1nnc(C[N+]23CCC(CC2)[C@@H](Oc2ccc(F)cc2)C3)o1)C1CCCCC1.[Br-] [Example 5, (R)-1-[5-((R)-Cyclohexyl-hydroxy-phenyl-methyl)-[1,3,4]oxadiazol-2-ylmethyl]-3-(4-fluoro-phenoxy)-1-azonia-bicyclo[2.2.2]octane bromide] | approximately 0.8% |  | 
O=c1[nH]c2c(O)ccc([C@@H](O)CNCCSCCCNCCc3ccccc3Cl)c2s1 [BA3, 7-[(1R)-2-({2-[(3-{[2-(2-Chlorophenyl)ethyl]amino}propyl)thio]ethyl}amino)-1-hydroxyethyl]-4-hydroxy-1,3-benzothiazol-2(3H)-one dihydrobromide] |  | 0.8 | 
CCN(CC)CCN(CCNCCc1ccc(O)c2[nH]c(=O)sc12)C(=O)CCOCCc1cccc2ccccc12 [BA1, N-[2-(Diethylamino)ethyl]-N-(2-{[2-(4-hydroxy-2-oxo-2,3-dihydro-1,3-benzothiazol-7-yl)ethyl]amino}ethyl)-3-[2-(1-naphthyl)ethoxy]propanamide dihydrobromide] |  | 0.8 | 
CCN(CC)CCN(CCNCCc1ccc(O)c2[nH]c(=O)sc12)C(=O)CCOCCc1cccc(Cl)c1 [BA2, N-[2-(Diethylamino)ethyl]-N-(2-{[2-(4-hydroxy-2-oxo-2,3-dihydro-1,3-benzothiazol-7-yl)ethyl]amino}ethyl)-3-[2-(3-chlorophenyl)ethoxy]propanamide dihydrobromide] |  | 0.7 | 
Cc1ccc(O[C@H]2C[N+]3(Cc4cc(C(O)(c5ccccc5)c5ccccc5)no4)CCC2CC3)cc1F.[Br-] [Example 7, (R)-3-(3-Fluoro-4-methyl-phenoxy)-1-[3-(hydroxy-diphenyl-methyl)-isoxazol-5-ylmethyl]-1-azonia-bicyclo[2.2.2]octane bromide] | approximately 0.1% |  | 
O=S(=O)([O-])c1ccccc1.O[C@](c1ccccc1)(c1cc(C[N+]23CCC(CC2)[C@@H](Oc2ccc(F)cc2)C3)on1)C1CCCCC1 [Example 2, (R)-1-[3-((R)-Cyclohexyl-hydroxy-phenyl-methyl)-isoxazol-5-ylmethyl]-3-(4-fluoro-phenoxy)-1-azonia-bicyclo[2.2.2]octane benzenesulfonate] |  |  | DVS weight increase [3]: 0.2 % (% w/w)
